Assay results reported in patent publication US8802597B2, “Herbicidal pyrimidines” (E I du Pont de Nemours and Company, priority 2003, dated 2014).
Read-outs that look alike come from different tables or passages of the source.

Legend:
Test in all cases: Test C pre/postemergence
Type in all cases: in vivo
[1] = tested on: johnsongrass (Sorghum halepense); conditions: Sorghum halepense, read-out: Plant response rating, Johnsongrass; for pest or weed control at 250 g/ha: 250 g ai/ha; for pest or weed control at 500 g/ha: 500 g ai/ha
Procedure, shortened: (§1)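 Percent control is a visual rating (0 none, 100 complete) taken against untreated plants after 12 to 14 days of greenhouse growth. Applications were made preemergence to seeded pots and postemergence to plants at the 1- to 4-leaf stage, in a non-phytotoxic surfactant-containing solvent.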

kochia (Kochia scoparia) = conditions: Bassia scoparia; for pest or weed control at 62 g/ha: 62 g ai/ha; for pest or weed control at 125 g/ha: 125 g ai/ha; for pest or weed control at 250 g/ha: 250 g ai/ha; for pest or weed control at 500 g/ha: 500 g ai/ha
Procedure, shortened: as §1

[2] = tested on: morningglory (Ipomoea coccinea); conditions: Ipomoea; for pest or weed control at 62 g/ha: 62 g ai/ha; for pest or weed control at 125 g/ha: 125 g ai/ha; for pest or weed control at 250 g/ha: 250 g ai/ha; for pest or weed control at 500 g/ha: 500 g ai/ha
Procedure, shortened: as §1

[3] = tested on: pigweed (Amaranthus retroflexus); conditions: Amaranthus retroflexus; for pest or weed control at 62 g/ha: 62 g ai/ha; for pest or weed control at 125 g/ha: 125 g ai/ha; for pest or weed control at 250 g/ha: 250 g ai/ha; for pest or weed control at 500 g/ha: 500 g ai/ha
Procedure, shortened: as §1

soybean (Glycine max) = conditions: Glycine max; for plant injury at 62 g/ha: 62 g ai/ha; for plant injury at 125 g/ha: 125 g ai/ha; for plant injury at 250 g/ha: 250 g ai/ha; for plant injury at 500 g/ha: 500 g ai/ha
Procedure, shortened: as §1

[4] = tested on: woolly cupgrass (Eriochloa villosa); conditions: Eriochloa villosa; for pest or weed control at 62 g/ha: 62 g ai/ha; for pest or weed control at 125 g/ha: 125 g ai/ha; for pest or weed control at 250 g/ha: 250 g ai/ha; for pest or weed control at 500 g/ha: 500 g ai/ha
Procedure, shortened: as §1

[5] = post-emergence, Postemergence, scale 0 to 100
[6] = pre-emergence, Preemergence, scale 0 to 100
[7] = post-emergence, Postemergence, scale 0 to 100 (0 no effect, 100 complete control), read-out: Kochia plant response rating
[8] = post-emergence, Postemergence, scale 0 to 100, read-out: Plant response rating, Kochia
[9] = pre-emergence, Preemergence, scale 0 to 100, read-out: Plant response rating, Kochia
[10] = post-emergence, Postemergence, scale 0 to 100 (0 no effect, 100 complete control), read-out: Morningglory plant response rating
[11] = post-emergence, Postemergence, scale 0 to 100, read-out: Plant response rating, Morningglory
[12] = pre-emergence, Preemergence, scale 0 to 100, read-out: Plant response rating, Morningglory
[13] = post-emergence, Postemergence, scale 0 to 100 (0 no effect, 100 complete control), read-out: Pigweed plant response rating
[14] = post-emergence, Postemergence, scale 0 to 100, read-out: Plant response rating, Pigweed
[15] = pre-emergence, Preemergence, scale 0 to 100, read-out: Plant response rating, Pigweed
[16] = post-emergence, Postemergence, scale 0 to 100 (0 no effect, 100 complete control), read-out: Soybean plant response rating
[17] = post-emergence, Postemergence, scale 0 to 100, read-out: Plant response rating, Soybean
[18] = pre-emergence, Preemergence, scale 0 to 100, read-out: Plant response rating, Soybean
[19] = post-emergence, Postemergence, scale 0 to 100 (0 no effect, 100 complete control), read-out: Cupgrass, Woolly plant response rating
[20] = post-emergence, Postemergence, scale 0 to 100, read-out: Plant response rating, Cupgrass, Woolly
[21] = pre-emergence, Preemergence, scale 0 to 100, read-out: Plant response rating, Cupgrass, Woolly

How did the pest or weed control at 250 g/ha [1, 5] turn out when `CCOC(=O)c1nc(C2CC2)nc(N)c1Br` [Compound 1, ethyl 6-amino-5-bromo-2-cyclopropyl-4-pyrimidinecarboxylate] was run?
The pest or weed control at 250 g/ha was 70%.

And the pest or weed control at 500 g/ha [1, 5]?
Its pest or weed control at 500 g/ha is 70%.

What about the pest or weed control at 62 g/ha ([1]; pre-emergence, Preemergence, 62 g ai/ha, scale 0 to 100, 0 no effect, 100 complete control) of the same compound?
The pest or weed control at 62 g/ha was 0%.

And the pest or weed control at 125 g/ha ([1]; pre-emergence, Preemergence, 125 g ai/ha, scale 0 to 100)?
Its pest or weed control at 125 g/ha is 30%.

And the pest or weed control at 250 g/ha [1, 6]?
The pest or weed control at 250 g/ha was 80%.

And the pest or weed control at 500 g/ha [1, 6]?
Its pest or weed control at 500 g/ha is 90%.

And the pest or weed control at 62 g/ha (kochia (Kochia scoparia); [7])?
The pest or weed control at 62 g/ha was 100%.

And the pest or weed control at 125 g/ha (kochia (Kochia scoparia); [7])?
Its pest or weed control at 125 g/ha is 100%.

What about the pest or weed control at 250 g/ha (kochia (Kochia scoparia); [8]) of the same compound?
The pest or weed control at 250 g/ha was 100%.

What about the pest or weed control at 500 g/ha (kochia (Kochia scoparia); [8]) of the same compound?
The pest or weed control at 500 g/ha was 100%.

What about the pest or weed control at 62 g/ha (kochia (Kochia scoparia); pre-emergence, Preemergence, scale 0 to 100, 0 no effect, 100 complete control, read-out: Plant response rating, Kochia) of the same compound?
Its pest or weed control at 62 g/ha is 95%.

And the pest or weed control at 125 g/ha (kochia (Kochia scoparia); [9])?
Its pest or weed control at 125 g/ha is 100%.

What about the pest or weed control at 250 g/ha (kochia (Kochia scoparia); [9]) of the same compound?
The pest or weed control at 250 g/ha was 100%.

And the pest or weed control at 500 g/ha (kochia (Kochia scoparia); [9])?
The pest or weed control at 500 g/ha was 100%.

What about the pest or weed control at 62 g/ha [2, 10] of the same compound?
The pest or weed control at 62 g/ha was 100%.

And the pest or weed control at 125 g/ha [2, 10]?
Its pest or weed control at 125 g/ha is 100%.

And the pest or weed control at 250 g/ha [2, 11]?
Its pest or weed control at 250 g/ha is 100%.

And the pest or weed control at 500 g/ha [2, 11]?
The pest or weed control at 500 g/ha was 100%.

What about the pest or weed control at 62 g/ha ([2]; pre-emergence, Preemergence, scale 0 to 100, 0 no effect, 100 complete control, read-out: Plant response rating, Morningglory) of the same compound?
Its pest or weed control at 62 g/ha is 90%.

And the pest or weed control at 125 g/ha [2, 12]?
The pest or weed control at 125 g/ha was 100%.

And the pest or weed control at 250 g/ha [2, 12]?
Its pest or weed control at 250 g/ha is 100%.

And the pest or weed control at 500 g/ha [2, 12]?
Its pest or weed control at 500 g/ha is 100%.

And the pest or weed control at 62 g/ha [3, 13]?
Its pest or weed control at 62 g/ha is 90%.

What about the pest or weed control at 125 g/ha [3, 13] of the same compound?
Its pest or weed control at 125 g/ha is 100%.

And the pest or weed control at 250 g/ha [3, 14]?
Its pest or weed control at 250 g/ha is 100%.

What about the pest or weed control at 500 g/ha [3, 14] of the same compound?
Its pest or weed control at 500 g/ha is 100%.

What about the pest or weed control at 62 g/ha ([3]; pre-emergence, Preemergence, scale 0 to 100, 0 no effect, 100 complete control, read-out: Plant response rating, Pigweed) of the same compound?
The pest or weed control at 62 g/ha was 90%.

What about the pest or weed control at 125 g/ha [3, 15] of the same compound?
The pest or weed control at 125 g/ha was 100%.

What about the pest or weed control at 250 g/ha [3, 15] of the same compound?
The pest or weed control at 250 g/ha was 100%.

What about the pest or weed control at 500 g/ha [3, 15] of the same compound?
The pest or weed control at 500 g/ha was 100%.

And the plant injury at 62 g/ha (soybean (Glycine max); [16])?
The plant injury at 62 g/ha was 100%.

What about the plant injury at 125 g/ha (soybean (Glycine max); [16]) of the same compound?
The plant injury at 125 g/ha was 100%.

And the plant injury at 250 g/ha (soybean (Glycine max); [17])?
The plant injury at 250 g/ha was 100%.

What about the plant injury at 500 g/ha (soybean (Glycine max); [17]) of the same compound?
Its plant injury at 500 g/ha is 100%.

And the plant injury at 62 g/ha (soybean (Glycine max); pre-emergence, Preemergence, scale 0 to 100, 0 no effect, 100 complete control, read-out: Plant response rating, Soybean)?
The plant injury at 62 g/ha was 85%.

What about the plant injury at 125 g/ha (soybean (Glycine max); [18]) of the same compound?
Its plant injury at 125 g/ha is 100%.

And the plant injury at 250 g/ha (soybean (Glycine max); [18])?
The plant injury at 250 g/ha was 100%.

What about the plant injury at 500 g/ha (soybean (Glycine max); [18]) of the same compound?
The plant injury at 500 g/ha was 100%.

What about the pest or weed control at 62 g/ha [4, 19] of the same compound?
Its pest or weed control at 62 g/ha is 65%.

What about the pest or weed control at 125 g/ha [4, 19] of the same compound?
The pest or weed control at 125 g/ha was 80%.

And the pest or weed control at 250 g/ha [4, 20]?
Its pest or weed control at 250 g/ha is 90%.

And the pest or weed control at 500 g/ha [4, 20]?
Its pest or weed control at 500 g/ha is 90%.

What about the pest or weed control at 62 g/ha ([4]; pre-emergence, Preemergence, scale 0 to 100, 0 no effect, 100 complete control, read-out: Plant response rating, Cupgrass, Woolly) of the same compound?
The pest or weed control at 62 g/ha was 0%.

And the pest or weed control at 125 g/ha [4, 21]?
Its pest or weed control at 125 g/ha is 60%.

And the pest or weed control at 250 g/ha [4, 21]?
Its pest or weed control at 250 g/ha is 90%.

And the pest or weed control at 500 g/ha [4, 21]?
The pest or weed control at 500 g/ha was 95%.
